Measured values from article PMC5228037, “Discovery and Mechanistic Characterization of Selective Inhibitors of H2S-producing Enzyme: 3-Mercaptopyruvate Sulfurtransferase (3MST) Targeting Active-site Cysteine Persulfide” (Scientific Reports, 2017).

Molecular target: T1, persulfurated 3MST (Mus musculus, UniProt Q99J99)
T1 construct: The recombinant full-length wild-type mouse 3MST; made in house; host or cells: E. coli JM109 (DE3)
T1 sequence (Q99J99 1-297): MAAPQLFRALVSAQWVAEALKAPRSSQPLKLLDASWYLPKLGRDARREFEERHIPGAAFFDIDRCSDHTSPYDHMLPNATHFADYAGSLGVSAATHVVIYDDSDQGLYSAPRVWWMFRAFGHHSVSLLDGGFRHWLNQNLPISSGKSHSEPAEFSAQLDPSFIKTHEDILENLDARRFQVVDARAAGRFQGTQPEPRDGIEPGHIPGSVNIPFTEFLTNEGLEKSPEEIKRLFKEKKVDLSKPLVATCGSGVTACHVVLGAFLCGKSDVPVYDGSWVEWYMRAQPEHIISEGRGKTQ
Experiment: ITC analysis with persulfurated 3MST
Format: binding
Conditions: 25 °C; for ΔH (ITC): persulfurated 3MST; for Kd: persulfurated (3MP-treated) 3MST, pH 9, read-out: Dissociation constant Kd (ITC)
Procedure: The recombinant full-length wild-type mouse 3MST and mutant m3MST (C65S/C255S/C264S) were expressed as an N-terminal His-tagged protein ([…]-3MST) in E. coli JM109 (DE3). The pET44a(+) vector (Novagen) was used as an expression vector. Cells were grown at 37 °C in LB broth (Miller) or 2 × YT broth containing 0.1 g/L ampicillin to OD600 about 0.5, and then protein expression was induced by adding IPTG (final conc. 0.5 mM (LB), 1 mM (2 × YT)). Cells were cultured overnight at 18–20 °C with shaking and harvested at 4 °C by centrifugation at 9,000 rpm for 5 min. Harvested cells were resuspended in lysis buffer containing 0.1 M HEPES-NaOH pH 8, 0.5 M NaCl, 0% or 10% glycerol, 0.5 mM TCEP, 1 mM PMSF, and 1% EtOH, and disrupted by sonication. Cell lysis solutions were centrifuged at 20,000 rpm for 20 min. […] The proteins were further purified on HisTrap HP (GE Healthcare) by increasing the imidazole concentration in buffer containing 0.02 M HEPES pH 8, 0.15 M NaCl, 10% glycerol, and 0.05 mM TCEP until proteins were eluted. Then the His-tag was removed by GST-fusion HRV 3 C protease digestion. The proteins were further purified by anion exchange chromatography on a HiTrap Q HP (GE Healthcare) by increasing the NaCl concentration in buffer containing 0.02 M HEPES pH 8, 10% glycerol, 0.5 mM TCEP until proteins were eluted, and then by gel filtration chromatography on Superdex 75 prep grade using buffer containing 0.02 M HEPES pH 7.5, 0.3 M NaCl, 0.5 mM TCEP. Wild-type 3MST was used in ITC analysis and mutant 3MST was used for crystallization.
Persulfurated 3MST was prepared as follows: 3MST-3MP solution (5 μM 3MST, 25 μM 3MP, 20 μM TCEP, 0.02 M glycine-NaOH pH9, 0.1 M NaCl) was incubated for 2 hr at room temperature. To prevent buffer mismatch and to remove unreacted 3MP and reaction product (pyruvate), the reaction solution was exchanged to ITC measurement solution (0.02 M glycine-NaOH pH 9, 0.1 M NaCl, 5% DMSO) using an Amicon Ultra (10 K) (Millipore) or Vivaspin (10 K) (Sartorius). Non-persulfurated 3MST solution was also prepared by buffer exchange. Both inhibitors were dissolved in the ITC measurement solution. Inhibitor solution (0.5 mM compound 1 or 0.25 mM compound 3) were titrated into a protein solution (0.05 mM 3MST) at 25 °C using a MicroCal iTC200 (GE Healthcare). The first injection of 0.4 μL was followed by 18 injections of 2 μL with 150 s between each injection. Each experiment was repeated three times (n = 3). For data analysis, the first injection peak was removed. Data analyses and curve fitting to a single-site binding model were performed by Origin7 SR4 software (OriginLab).

Row | Structure (SMILES) | ΔH (ITC) [kcal/mol] | Kd [nM]
1 | Cc1cc(=O)[nH]c(SCC(=O)c2cccc3ccccc23)n1 [compound 3] | -11.76 | 500
2 | NC(=O)c1ccsc1NC(=O)CSc1nc2ccccc2c(=O)[nH]1 [compound 1] | -9.37 | 3000
